Like-named read-outs stand apart in the source and are kept apart here.
Experiments:
[1] = target: CDK7 (Homo sapiens, UniProt P50613); experiment: NanoBRET live-cell target engagement, NanoLuc-CDK7 in HEK-293; format: binding; conditions: for CDK7 Occupancy (%): Panel A
[2] = target: CDK8/Cyclin C (Homo sapiens, UniProt P49336); experiment: NanoBRET live-cell target engagement, NanoLuc-CDK8/Cyclin C in HEK-293; format: binding; conditions: 10µM, read-out: CDK8/C Inhibition at 10µM (%)
[3] = target: CDK9/Cyclin K (Homo sapiens, UniProt P50750); experiment: NanoBRET live-cell target engagement, NanoLuc-CDK9/Cyclin K in HEK-293; format: binding; conditions: 10µM, read-out: CDK9/K Inhibition at 10µM (%)
CDK9/Cyclin K, sequence (P50750 whole entry): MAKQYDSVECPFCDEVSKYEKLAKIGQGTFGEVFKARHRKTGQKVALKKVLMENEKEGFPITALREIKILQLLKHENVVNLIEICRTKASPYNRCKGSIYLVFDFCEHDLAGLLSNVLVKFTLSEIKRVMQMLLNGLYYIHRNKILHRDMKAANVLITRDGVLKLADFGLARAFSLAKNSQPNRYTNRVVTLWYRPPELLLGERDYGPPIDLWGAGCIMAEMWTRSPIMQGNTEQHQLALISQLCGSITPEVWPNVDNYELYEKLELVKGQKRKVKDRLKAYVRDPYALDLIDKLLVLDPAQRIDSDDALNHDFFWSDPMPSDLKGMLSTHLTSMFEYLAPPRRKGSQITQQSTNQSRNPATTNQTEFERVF
CDK9/Cyclin K, sequence (O75909 whole entry partner): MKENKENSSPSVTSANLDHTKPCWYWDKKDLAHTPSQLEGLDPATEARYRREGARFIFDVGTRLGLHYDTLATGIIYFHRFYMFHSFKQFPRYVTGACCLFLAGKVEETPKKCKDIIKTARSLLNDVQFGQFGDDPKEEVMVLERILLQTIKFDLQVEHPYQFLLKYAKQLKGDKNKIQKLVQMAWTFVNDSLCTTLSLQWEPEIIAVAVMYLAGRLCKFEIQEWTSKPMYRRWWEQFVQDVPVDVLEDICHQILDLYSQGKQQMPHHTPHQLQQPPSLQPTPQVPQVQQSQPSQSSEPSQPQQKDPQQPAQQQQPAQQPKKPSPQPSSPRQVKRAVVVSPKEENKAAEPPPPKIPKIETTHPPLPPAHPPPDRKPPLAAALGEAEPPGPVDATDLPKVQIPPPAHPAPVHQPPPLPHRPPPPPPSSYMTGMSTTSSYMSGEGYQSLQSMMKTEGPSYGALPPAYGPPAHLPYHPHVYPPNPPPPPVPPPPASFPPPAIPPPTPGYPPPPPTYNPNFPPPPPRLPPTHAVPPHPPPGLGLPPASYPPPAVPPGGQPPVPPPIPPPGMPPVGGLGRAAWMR

[4] = target: T1, CDK11A/Cyclin L2 (Homo sapiens, UniProt Q9UQ88); experiment: NanoBRET live-cell target engagement, CDK11A-NanoLuc/Cyclin L2 in HEK-293; format: binding; conditions: read-out: CDK11a/L2 Inhibition at 10µM (%), 10µM
T1 sequence (Q9UQ88 1-783): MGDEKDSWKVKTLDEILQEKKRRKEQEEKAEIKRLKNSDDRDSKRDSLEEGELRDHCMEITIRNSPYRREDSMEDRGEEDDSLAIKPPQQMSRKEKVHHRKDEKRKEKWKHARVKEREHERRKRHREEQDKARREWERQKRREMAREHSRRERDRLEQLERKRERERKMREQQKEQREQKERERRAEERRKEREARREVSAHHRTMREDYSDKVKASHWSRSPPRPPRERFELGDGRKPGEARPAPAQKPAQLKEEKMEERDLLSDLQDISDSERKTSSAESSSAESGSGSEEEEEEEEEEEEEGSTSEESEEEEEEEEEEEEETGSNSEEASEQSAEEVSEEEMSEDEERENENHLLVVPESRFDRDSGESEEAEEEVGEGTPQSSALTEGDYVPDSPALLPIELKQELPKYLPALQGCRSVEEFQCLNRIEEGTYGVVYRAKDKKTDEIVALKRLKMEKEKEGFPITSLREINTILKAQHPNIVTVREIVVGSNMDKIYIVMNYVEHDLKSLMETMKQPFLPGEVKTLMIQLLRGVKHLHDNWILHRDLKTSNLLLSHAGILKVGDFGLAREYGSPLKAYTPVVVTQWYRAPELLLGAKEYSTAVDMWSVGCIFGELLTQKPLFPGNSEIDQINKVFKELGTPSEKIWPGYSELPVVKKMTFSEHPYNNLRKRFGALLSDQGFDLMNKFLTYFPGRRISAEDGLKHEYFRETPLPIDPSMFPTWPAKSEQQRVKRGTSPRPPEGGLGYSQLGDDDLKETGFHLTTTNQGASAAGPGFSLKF

[5] = target: CDK11B/Cyclin L2 (Homo sapiens, UniProt P21127); experiment: NanoBRET live-cell target engagement, CDK11B-NanoLuc/Cyclin L2 in HEK-293; format: binding; conditions: read-out: CDK11b/L2 Inhibition at 10µM (%), 10µM
CDK11B/Cyclin L2, sequence (P21127 1-782 isoform P21127-2): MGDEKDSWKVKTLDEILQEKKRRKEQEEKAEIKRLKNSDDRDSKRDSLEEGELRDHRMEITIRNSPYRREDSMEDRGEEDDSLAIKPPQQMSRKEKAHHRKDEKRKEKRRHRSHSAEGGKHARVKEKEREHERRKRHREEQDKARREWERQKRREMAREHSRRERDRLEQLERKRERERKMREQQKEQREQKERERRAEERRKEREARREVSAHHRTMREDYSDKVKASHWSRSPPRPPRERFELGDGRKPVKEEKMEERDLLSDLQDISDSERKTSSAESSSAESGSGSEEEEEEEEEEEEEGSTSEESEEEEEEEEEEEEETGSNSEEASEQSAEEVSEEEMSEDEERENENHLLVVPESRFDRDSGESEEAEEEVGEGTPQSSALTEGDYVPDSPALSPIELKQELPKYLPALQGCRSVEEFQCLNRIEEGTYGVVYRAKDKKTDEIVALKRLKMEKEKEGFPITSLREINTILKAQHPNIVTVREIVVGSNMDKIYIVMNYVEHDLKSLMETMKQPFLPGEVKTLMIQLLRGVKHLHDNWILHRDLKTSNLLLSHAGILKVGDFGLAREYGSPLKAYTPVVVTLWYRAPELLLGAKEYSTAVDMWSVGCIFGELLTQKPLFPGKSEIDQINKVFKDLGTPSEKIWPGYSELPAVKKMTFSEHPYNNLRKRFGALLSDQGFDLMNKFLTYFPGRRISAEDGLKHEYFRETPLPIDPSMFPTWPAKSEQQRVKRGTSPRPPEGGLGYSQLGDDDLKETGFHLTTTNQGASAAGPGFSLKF

[6] = target: CDK12/Cyclin K (Homo sapiens, UniProt Q9NYV4); experiment: NanoBRET live-cell target engagement, CDK12-NanoLuc/Cyclin K in HEK-293; format: binding; conditions: read-out: CDK12/K Inhibition at 10µM (%), 10µM
[7] = target: CDK13/Cyclin K (Homo sapiens, UniProt Q14004); experiment: NanoBRET live-cell target engagement, CDK13-NanoLuc/Cyclin K in HEK-293; format: binding; conditions: 10µM, read-out: CDK13/K Inhibition at 10µM (%)
[8] = target: CDK15/Cyclin Y (Homo sapiens, UniProt Q96Q40); experiment: NanoBRET live-cell target engagement, NanoLuc-CDK15/Cyclin Y in HEK-293; format: binding; conditions: for inhibition at 10 µM: read-out: CDK15/Y Inhibition at 10µM (%), 10µM
CDK15/Cyclin Y, sequence (Q96Q40 whole entry): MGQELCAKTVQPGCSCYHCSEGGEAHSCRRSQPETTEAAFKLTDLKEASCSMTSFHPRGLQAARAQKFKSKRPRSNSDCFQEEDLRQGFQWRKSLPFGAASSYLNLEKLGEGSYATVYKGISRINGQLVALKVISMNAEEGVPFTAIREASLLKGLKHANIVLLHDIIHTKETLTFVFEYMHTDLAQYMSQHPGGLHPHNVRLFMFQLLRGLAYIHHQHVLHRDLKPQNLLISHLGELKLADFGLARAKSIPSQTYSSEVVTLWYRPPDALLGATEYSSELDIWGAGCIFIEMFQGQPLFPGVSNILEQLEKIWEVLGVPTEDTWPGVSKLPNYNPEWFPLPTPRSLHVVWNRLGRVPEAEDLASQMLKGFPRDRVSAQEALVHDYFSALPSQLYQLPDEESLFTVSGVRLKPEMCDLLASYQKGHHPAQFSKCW
CDK15/Cyclin Y, sequence (Q8ND76 whole entry partner): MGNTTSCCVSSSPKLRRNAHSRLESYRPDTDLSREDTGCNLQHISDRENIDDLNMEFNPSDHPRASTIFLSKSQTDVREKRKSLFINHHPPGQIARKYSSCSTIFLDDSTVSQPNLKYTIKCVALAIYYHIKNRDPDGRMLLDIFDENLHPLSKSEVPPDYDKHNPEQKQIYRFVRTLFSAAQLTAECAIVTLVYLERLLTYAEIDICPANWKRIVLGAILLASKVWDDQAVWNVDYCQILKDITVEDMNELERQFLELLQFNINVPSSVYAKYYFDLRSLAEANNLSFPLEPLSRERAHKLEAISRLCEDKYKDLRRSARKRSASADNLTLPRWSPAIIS

[9] = target: CDK16/Cyclin Y (Homo sapiens, UniProt Q00536); experiment: NanoBRET live-cell target engagement, CDK16-NanoLuc/Cyclin Y in HEK-293; format: binding; conditions: for IC50: read-out: CDK16/Y IC50; for inhibition at 10 µM: read-out: CDK16/Y Inhibition at 10µM (%), 10µM
CDK16/Cyclin Y, sequence (Q00536 whole entry): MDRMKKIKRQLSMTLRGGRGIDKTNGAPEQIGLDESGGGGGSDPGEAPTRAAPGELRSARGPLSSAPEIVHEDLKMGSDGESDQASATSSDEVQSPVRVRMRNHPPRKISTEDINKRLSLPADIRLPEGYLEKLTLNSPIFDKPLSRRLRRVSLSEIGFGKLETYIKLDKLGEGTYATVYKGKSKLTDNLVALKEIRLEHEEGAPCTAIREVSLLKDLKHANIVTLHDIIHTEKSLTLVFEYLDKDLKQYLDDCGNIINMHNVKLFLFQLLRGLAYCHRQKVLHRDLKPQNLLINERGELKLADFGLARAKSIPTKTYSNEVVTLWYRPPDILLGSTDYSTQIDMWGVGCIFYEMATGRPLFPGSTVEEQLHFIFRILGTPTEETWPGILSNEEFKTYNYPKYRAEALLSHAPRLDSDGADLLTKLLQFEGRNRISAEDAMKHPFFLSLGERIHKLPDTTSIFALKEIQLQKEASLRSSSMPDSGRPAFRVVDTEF
CDK16/Cyclin Y, sequence (Q8ND76 whole entry partner): as the sequence (Q8ND76 whole entry partner) above

[10] = target: CDK17/Cyclin Y (Homo sapiens, UniProt Q00537); experiment: NanoBRET live-cell target engagement, CDK17-NanoLuc/Cyclin Y in HEK-293; format: binding; conditions: for IC50: read-out: CDK17/Y IC50; for inhibition at 10 µM: read-out: CDK17/Y Inhibition at 10µM (%), 10µM
[11] = target: CDK18/Cyclin Y (Homo sapiens, UniProt Q07002); experiment: NanoBRET live-cell target engagement, CDK18-NanoLuc/Cyclin Y in HEK-293; format: binding; conditions: for IC50: read-out: CDK18/Y IC50; for inhibition at 10 µM: read-out: CDK18/Y Inhibition at 10µM (%), 10µM
CDK18/Cyclin Y, sequence (Q07002 whole entry): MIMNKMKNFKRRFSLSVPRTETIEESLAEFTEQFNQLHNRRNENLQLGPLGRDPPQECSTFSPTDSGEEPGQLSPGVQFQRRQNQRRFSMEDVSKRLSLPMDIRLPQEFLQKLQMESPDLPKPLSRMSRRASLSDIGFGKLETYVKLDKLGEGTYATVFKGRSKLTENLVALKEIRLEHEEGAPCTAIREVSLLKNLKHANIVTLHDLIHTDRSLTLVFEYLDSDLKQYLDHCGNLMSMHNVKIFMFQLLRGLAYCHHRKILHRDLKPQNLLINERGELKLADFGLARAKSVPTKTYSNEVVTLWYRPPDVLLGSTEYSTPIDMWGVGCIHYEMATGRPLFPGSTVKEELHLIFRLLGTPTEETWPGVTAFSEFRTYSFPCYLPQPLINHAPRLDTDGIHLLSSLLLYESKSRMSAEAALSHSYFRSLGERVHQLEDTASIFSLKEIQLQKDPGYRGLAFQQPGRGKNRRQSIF
CDK18/Cyclin Y, sequence (Q8ND76 whole entry partner): as the sequence (Q8ND76 whole entry partner) above

[12] = target: CDK20/Cyclin H (Homo sapiens, UniProt Q8IZL9); experiment: NanoBRET live-cell target engagement, NanoLuc-CDK20/Cyclin H in HEK-293; format: binding; conditions: read-out: CDK20/H Inhibition at 10µM (%), 10µM
[13] = target: CDK19/Cyclin C (Homo sapiens, UniProt Q9BWU1); experiment: NanoBRET live-cell target engagement, NanoLuc-CDK19/Cyclin C in HEK-293; conditions: read-out: CDK19/C Inhibition at 10µM (%), 10µM
CDK19/Cyclin C, sequence (Q9BWU1 whole entry): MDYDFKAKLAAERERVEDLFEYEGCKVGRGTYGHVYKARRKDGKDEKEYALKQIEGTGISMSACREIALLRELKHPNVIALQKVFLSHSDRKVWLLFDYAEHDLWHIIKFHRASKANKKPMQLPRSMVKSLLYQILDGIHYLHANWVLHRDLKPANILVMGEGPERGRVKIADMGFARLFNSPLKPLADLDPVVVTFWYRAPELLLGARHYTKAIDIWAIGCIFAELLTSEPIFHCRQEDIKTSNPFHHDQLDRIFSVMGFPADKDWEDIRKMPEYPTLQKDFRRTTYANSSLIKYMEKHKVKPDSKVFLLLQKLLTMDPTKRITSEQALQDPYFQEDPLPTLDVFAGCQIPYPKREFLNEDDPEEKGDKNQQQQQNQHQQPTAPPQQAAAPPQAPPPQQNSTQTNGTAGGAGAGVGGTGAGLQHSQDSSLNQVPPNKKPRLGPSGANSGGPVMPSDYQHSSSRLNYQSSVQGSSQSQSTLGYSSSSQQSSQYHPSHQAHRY
CDK19/Cyclin C, sequence (P24863 whole entry partner): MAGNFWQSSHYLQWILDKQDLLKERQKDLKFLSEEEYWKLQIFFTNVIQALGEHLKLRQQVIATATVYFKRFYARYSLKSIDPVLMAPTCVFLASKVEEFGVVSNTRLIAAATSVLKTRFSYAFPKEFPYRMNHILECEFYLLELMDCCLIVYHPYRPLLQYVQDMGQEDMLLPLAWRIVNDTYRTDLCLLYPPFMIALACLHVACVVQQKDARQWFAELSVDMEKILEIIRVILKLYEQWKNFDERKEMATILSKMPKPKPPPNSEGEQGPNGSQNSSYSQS

CDK8/Cyclin C, sequence (P49336 whole entry): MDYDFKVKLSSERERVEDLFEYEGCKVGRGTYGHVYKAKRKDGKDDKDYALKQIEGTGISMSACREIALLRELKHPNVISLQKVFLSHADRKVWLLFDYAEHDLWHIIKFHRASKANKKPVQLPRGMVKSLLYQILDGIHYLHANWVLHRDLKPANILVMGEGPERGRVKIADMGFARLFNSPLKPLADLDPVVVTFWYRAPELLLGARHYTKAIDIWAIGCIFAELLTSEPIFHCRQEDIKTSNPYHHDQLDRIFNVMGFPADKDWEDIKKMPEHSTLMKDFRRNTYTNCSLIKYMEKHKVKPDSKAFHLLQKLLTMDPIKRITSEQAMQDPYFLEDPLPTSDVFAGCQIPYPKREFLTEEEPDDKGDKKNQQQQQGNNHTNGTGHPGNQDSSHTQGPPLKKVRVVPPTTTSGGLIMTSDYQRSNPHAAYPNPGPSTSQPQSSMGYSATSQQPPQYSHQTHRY
CDK8/Cyclin C, sequence (P24863 whole entry partner): as the sequence (P24863 whole entry partner) above

## COCCN1CCN(Cc2ccc(-c3n[nH]c4c3C(=O)c3c(NC(=O)NN5CCOCC5)cccc3-4)cc2)CC1 [RGB286638]
[1]; 10µM, independent experiment 2, read-out: CDK7 Inhibition at 10µM (%)
  inhibition at 10 µM: 96.7%
[1]; LOG10([RGB-286638]) 0.045757 LOG10(µM)
  CDK7 Occupancy (%): 97.0886%
[1]; LOG10([RGB-286638]) 0.522879 LOG10(µM)
  CDK7 Occupancy (%): 96.5823%
[1]; LOG10([RGB-286638]) 1 LOG10(µM)
  CDK7 Occupancy (%): 97.4684%
[1]; LOG10([RGB-286638]) -0.43136 LOG10(µM)
  CDK7 Occupancy (%): 93.9241%
[1]; LOG10([RGB-286638]) -0.90849 LOG10(µM)
  CDK7 Occupancy (%): 87.0886%
[1]; LOG10([RGB-286638]) -1.38561 LOG10(µM)
  CDK7 Occupancy (%): 72.7848%
[1]; LOG10([RGB-286638]) -1.86273 LOG10(µM)
  CDK7 Occupancy (%): 53.2911%
[1]; LOG10([RGB-286638]) -2.33985 LOG10(µM)
  CDK7 Occupancy (%): 31.2658%
[1]; LOG10([RGB-286638]) -2.81697 LOG10(µM)
  CDK7 Occupancy (%): 12.6582%
[1]; LOG10([RGB-286638]) -3.29409 LOG10(µM)
  CDK7 Occupancy (%): 6.329%
[1]; LOG10([RGB-286638]) -3.77121 LOG10(µM)
  CDK7 Occupancy (%): 1.266%
[1]; average (± SEM where n=3), read-out: CDK7 IC50
  IC50: 16 ± 5 nM
[1]; independent experiment 1, read-out: CDK7 IC50
  IC50: 11 nM
[1]; independent experiment 2, read-out: CDK7 IC50
  IC50: 11 nM
[1]; independent experiment 3, read-out: CDK7 IC50
  IC50: 26 nM
[1]; live HEK-293, 2 h, mean ± S.E.M. (n=3) or mean (n=2), read-out: IC50 for CDK/cyclin complexes, CDK7
  IC50: 12 to 16 nM
[2]; average of experiments
  inhibition at 10 µM: 55.6%
[2]; independent experiment 1
  inhibition at 10 µM: 21.9%
[2]; independent experiment 2
  inhibition at 10 µM: 89.3%
[3]; average of experiments
  inhibition at 10 µM: 94.7%
[3]; independent experiment 1
  inhibition at 10 µM: 90.7%
[3]; independent experiment 2
  inhibition at 10 µM: 98.8%
[4]; average of experiments
  inhibition at 10 µM: 41.5%
[4]; independent experiment 1
  inhibition at 10 µM: 16.8%
[4]; independent experiment 2
  inhibition at 10 µM: 66.3%
[5]; average of experiments
  inhibition at 10 µM: 32.6%
[5]; independent experiment 1
  inhibition at 10 µM: 19.9%
[5]; independent experiment 2
  inhibition at 10 µM: 45.2%
[6]; average of experiments
  inhibition at 10 µM: 47.5%
[6]; independent experiment 1
  inhibition at 10 µM: 30.7%
[6]; independent experiment 2
  inhibition at 10 µM: 64.4%
[7]; average of experiments
  inhibition at 10 µM: 49.1%
[7]; independent experiment 1
  inhibition at 10 µM: 33.8%
[7]; independent experiment 2
  inhibition at 10 µM: 64.5%
[8]; average (± SEM where n=3), read-out: CDK15/Y IC50
  IC50: 14 nM
[8]; independent experiment 1, read-out: CDK15/Y IC50
  IC50: 14 nM
[8]; independent experiment 2, read-out: CDK15/Y IC50
  IC50: 13 nM
[8]; live HEK-293, 2 h, mean ± S.E.M. (n=3) or mean (n=2), read-out: IC50 for CDK/cyclin complexes, CDK15/Y
  IC50: 14 nM
[8]; average of experiments
  inhibition at 10 µM: 97.4%
[8]; independent experiment 1
  inhibition at 10 µM: 96.5%
[8]; independent experiment 2
  inhibition at 10 µM: 98.2%
[9]; average (± SEM where n=3)
  IC50: 5.2 nM
[9]; independent experiment 1
  IC50: 5.4 nM
  inhibition at 10 µM: 95.2%
[9]; independent experiment 2
  IC50: 5 nM
  inhibition at 10 µM: 92.3%
[10]; average (± SEM where n=3)
  IC50: 6.6 nM
[10]; independent experiment 1
  IC50: 7.9 nM
  inhibition at 10 µM: 95.7%
[10]; independent experiment 2
  IC50: 5.3 nM
  inhibition at 10 µM: 92.1%
[10]; average of experiments
  inhibition at 10 µM: 93.9%
[11]; average (± SEM where n=3)
  IC50: 10 nM
[11]; independent experiment 1
  IC50: 8.6 nM
  inhibition at 10 µM: 97.4%
[11]; independent experiment 2
  IC50: 11 nM
  inhibition at 10 µM: 102%
[11]; average of experiments
  inhibition at 10 µM: 99.6%
[12]; independent experiment 1
  inhibition at 10 µM: 46%
[12]; independent experiment 2
  inhibition at 10 µM: 84.3%
[13]; average of experiments
  inhibition at 10 µM: 58%
[13]; independent experiment 1
  inhibition at 10 µM: 32.8%
[13]; independent experiment 2
  inhibition at 10 µM: 83.3%
